Source: ChEMBL document CHEMBL3879901, “Substituted isoquinolin-1(2H)-ones, and methods of use thereof” (2012)

Columns and labels:
PI3K p110 beta/p85 alpha = PI3K p110 beta/p85 alpha (Homo sapiens, UniProt P42338); assay: Inhibition of N-terminal His6-tagged recombinant full-length human p110beta/untagged recombinant full length p85alpha expressed in baculovirus infected Sf21 cells using phosphatidylinositol as substrate in presence of gamma-32P-ATP after 5 mins by thin layer chromatographic method
[1] = biological target: PI3-kinase p110-alpha/p85-alpha (Homo sapiens, UniProt P42336); assay: Inhibition of N-terminal His6-tagged recombinant full-length human p110alpha/untagged recombinant full length human p85alpha expressed in baculovirus infected Sf21 cells using phosphatidylinositol as substrate in presence of gamma-32P-ATP after 5 mins by thin layer chromatographic method
[2] = biological target: Phosphatidylinositol 4,5-bisphosphate 3-kinase catalytic subunit gamma isoform (Homo sapiens, UniProt P48736); assay: Inhibition of recombinant human C-terminal His6-tagged p110gamma expressed in insect cells using phosphatidylinositol as substrate in presence of gamma-32P-ATP after 5 mins by thin layer chromatographic method
[3] = Antiproliferative activity against Balb/c mouse splenic B cells preincubated for 30 mins followed by LPS or F(ab')2 donkey anti-mouse IgM and recombinant mouse IL4 stimulation measured after 72 hrs by Alamar Blue reduction assay; assay type: functional, cell-based
[4] = biological target: PI3-kinase p110-delta/p85-alpha (Homo sapiens, UniProt O00329); assay: Inhibition of N-terminal His6-tagged recombinant full-length human p110delta/untagged recombinant full length p85alpha expressed in baculovirus infected Sf21 cells using phosphatidylinositol as substrate in presence of gamma-32P-ATP after 5 mins by thin layer chromatographic method
PI3-kinase p110-delta/p85-alpha, sequence (P27986 whole entry): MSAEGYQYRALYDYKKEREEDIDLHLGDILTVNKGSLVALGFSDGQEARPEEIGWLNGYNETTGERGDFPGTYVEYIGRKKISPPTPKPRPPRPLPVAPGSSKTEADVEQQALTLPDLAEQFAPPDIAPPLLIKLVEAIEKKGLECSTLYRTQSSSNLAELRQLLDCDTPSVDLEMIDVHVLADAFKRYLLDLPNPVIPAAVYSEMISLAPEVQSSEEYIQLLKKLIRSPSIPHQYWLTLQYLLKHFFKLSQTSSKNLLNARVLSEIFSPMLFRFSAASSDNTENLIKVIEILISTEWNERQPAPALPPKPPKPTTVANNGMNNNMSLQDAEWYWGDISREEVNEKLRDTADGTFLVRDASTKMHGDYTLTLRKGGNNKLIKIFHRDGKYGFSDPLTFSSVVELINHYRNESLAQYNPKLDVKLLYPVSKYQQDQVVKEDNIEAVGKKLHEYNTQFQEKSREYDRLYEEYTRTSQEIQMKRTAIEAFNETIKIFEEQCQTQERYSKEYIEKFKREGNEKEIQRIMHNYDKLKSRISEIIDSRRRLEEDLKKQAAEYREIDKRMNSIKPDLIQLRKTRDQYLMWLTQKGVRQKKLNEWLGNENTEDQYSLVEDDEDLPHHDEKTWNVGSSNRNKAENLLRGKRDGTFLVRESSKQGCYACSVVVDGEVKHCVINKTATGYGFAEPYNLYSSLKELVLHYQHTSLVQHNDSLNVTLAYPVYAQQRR
PI3-kinase p110-delta/p85-alpha, sequence (O00329 whole entry): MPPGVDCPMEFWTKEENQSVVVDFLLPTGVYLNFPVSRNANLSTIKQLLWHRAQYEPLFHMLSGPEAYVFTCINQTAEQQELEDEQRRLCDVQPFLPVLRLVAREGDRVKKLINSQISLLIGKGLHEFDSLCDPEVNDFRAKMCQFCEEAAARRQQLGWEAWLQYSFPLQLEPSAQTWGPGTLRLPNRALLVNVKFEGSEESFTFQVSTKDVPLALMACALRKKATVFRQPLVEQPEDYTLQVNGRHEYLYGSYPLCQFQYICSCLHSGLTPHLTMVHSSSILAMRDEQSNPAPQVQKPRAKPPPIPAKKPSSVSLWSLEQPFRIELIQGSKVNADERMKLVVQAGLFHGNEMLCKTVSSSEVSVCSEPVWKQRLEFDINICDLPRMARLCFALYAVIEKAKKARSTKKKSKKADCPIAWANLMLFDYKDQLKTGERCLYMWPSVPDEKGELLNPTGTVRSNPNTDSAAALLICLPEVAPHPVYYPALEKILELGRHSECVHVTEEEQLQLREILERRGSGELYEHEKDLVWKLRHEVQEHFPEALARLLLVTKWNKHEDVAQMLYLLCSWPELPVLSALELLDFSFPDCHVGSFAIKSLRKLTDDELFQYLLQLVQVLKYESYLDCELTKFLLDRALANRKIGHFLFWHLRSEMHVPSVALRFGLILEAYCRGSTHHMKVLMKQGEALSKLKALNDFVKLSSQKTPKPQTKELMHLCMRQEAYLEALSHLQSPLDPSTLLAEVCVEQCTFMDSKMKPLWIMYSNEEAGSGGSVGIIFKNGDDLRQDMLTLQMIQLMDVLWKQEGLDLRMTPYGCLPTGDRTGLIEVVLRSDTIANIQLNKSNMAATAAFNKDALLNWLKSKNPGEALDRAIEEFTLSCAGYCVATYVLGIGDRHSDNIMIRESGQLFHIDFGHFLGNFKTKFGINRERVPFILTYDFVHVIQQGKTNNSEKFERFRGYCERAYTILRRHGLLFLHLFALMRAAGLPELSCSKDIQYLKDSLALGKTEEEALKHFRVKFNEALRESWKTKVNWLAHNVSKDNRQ

PI3K p110 beta/p85 alpha, sequence (P27986 whole entry): as the sequence (P27986 whole entry) above
PI3K p110 beta/p85 alpha, sequence (P42338 whole entry): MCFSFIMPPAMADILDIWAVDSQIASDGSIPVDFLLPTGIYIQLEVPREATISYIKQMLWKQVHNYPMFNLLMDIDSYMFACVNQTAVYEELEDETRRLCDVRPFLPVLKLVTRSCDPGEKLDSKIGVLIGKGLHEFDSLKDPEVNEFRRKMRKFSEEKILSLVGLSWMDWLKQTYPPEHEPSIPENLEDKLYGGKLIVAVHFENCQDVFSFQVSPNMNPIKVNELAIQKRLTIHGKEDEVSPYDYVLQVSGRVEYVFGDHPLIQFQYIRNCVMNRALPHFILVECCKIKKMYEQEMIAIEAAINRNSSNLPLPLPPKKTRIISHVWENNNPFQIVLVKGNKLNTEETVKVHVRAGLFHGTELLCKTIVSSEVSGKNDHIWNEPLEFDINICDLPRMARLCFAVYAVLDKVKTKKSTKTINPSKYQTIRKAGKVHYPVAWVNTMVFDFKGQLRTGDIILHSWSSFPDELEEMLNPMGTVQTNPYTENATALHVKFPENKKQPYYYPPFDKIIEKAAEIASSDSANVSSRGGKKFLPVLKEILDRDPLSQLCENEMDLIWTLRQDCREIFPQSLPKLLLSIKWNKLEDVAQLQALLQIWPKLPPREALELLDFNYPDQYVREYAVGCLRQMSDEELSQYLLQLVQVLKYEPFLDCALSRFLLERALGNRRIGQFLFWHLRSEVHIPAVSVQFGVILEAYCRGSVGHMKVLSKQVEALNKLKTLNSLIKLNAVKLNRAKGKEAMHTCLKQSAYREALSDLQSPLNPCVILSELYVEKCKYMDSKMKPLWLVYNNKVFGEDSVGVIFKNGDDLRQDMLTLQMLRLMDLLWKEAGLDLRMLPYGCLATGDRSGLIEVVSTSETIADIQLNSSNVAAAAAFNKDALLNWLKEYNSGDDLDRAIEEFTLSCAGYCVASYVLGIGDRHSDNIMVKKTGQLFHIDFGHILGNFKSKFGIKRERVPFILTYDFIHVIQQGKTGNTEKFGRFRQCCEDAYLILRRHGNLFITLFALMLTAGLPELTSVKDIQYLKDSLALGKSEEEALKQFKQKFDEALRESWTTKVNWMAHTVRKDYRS
PI3-kinase p110-alpha/p85-alpha, sequence (P27986 whole entry, canonical isoform): as the sequence (P27986 whole entry) above
PI3-kinase p110-alpha/p85-alpha, sequence (P42336 whole entry, canonical isoform): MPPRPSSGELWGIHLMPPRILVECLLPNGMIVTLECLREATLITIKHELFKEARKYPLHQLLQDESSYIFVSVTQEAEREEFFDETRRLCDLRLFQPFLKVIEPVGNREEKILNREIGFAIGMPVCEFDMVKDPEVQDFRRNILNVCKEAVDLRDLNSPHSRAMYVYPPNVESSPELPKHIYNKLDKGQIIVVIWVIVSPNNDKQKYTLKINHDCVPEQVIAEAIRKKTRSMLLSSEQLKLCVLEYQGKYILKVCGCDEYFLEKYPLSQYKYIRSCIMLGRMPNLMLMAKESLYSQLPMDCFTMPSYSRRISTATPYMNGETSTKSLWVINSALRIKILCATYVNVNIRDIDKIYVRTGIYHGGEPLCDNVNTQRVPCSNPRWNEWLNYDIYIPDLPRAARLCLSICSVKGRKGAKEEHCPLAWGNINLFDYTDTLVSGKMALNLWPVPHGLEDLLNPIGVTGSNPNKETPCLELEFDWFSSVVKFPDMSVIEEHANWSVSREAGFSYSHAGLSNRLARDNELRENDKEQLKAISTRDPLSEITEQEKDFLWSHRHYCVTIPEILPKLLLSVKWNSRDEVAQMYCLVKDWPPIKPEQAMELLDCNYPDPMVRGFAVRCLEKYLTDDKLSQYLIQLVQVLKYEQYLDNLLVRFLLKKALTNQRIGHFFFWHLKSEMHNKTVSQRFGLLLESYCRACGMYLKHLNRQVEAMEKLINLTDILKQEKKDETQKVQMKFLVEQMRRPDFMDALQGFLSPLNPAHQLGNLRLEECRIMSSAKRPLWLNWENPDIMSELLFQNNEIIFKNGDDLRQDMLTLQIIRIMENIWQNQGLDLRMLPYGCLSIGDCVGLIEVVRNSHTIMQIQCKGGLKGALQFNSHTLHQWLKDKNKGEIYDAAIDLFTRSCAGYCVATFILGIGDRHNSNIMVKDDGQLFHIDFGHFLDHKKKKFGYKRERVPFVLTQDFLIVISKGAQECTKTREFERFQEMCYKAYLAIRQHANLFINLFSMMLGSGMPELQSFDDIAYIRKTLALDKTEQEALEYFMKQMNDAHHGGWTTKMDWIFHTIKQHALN
Phosphatidylinositol 4,5-bisphosphate 3-kinase catalytic subunit gamma isoform, sequence (P48736 whole entry, canonical isoform): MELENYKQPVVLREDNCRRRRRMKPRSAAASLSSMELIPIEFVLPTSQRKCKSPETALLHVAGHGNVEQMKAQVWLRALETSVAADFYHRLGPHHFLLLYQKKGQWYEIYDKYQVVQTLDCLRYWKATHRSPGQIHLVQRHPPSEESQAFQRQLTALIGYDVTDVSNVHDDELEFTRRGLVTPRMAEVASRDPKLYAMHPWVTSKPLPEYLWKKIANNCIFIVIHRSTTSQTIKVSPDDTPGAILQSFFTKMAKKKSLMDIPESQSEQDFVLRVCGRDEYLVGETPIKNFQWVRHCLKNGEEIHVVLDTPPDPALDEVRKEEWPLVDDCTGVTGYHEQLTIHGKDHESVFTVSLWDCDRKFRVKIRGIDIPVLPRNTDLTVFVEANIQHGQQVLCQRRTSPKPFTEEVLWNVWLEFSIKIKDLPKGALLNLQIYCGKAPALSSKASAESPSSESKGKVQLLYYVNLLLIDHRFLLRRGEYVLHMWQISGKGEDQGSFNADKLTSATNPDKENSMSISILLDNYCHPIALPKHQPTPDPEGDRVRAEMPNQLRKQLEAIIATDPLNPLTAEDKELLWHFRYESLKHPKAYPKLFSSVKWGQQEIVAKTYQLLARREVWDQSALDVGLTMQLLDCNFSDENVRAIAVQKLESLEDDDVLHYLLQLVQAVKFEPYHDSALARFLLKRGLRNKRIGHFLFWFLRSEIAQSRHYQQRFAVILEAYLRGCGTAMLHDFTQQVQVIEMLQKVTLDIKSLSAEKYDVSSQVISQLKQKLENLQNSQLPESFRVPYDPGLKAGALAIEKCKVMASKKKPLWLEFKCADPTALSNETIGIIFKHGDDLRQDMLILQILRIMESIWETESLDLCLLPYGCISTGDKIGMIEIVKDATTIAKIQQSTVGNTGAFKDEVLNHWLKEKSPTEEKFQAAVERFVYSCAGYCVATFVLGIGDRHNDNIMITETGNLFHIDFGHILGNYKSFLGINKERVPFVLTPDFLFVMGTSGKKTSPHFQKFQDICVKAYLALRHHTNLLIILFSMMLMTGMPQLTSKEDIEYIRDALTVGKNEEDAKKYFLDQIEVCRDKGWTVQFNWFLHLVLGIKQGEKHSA

| Compound | IC50 (PI3K p110 beta/p85 alpha) [µM] | IC50 [1] [µM] | IC50 [2] [µM] | IC50 [4] [µM] | EC50 [3] [µM] |
| --- | --- | --- | --- | --- | --- |
| COc1ccccc1-n1c(Cn2nc(I)c3c(N)ncnc32)cc2cccc(C)c2c1=O | > 10 | > 10 | < 1 | < 0.1 | < 1 |
| Cc1cccc2cc(Cn3nc(-c4cn[nH]c4)c4c(N)ncnc43)n(-c3ccccc3Cl)c(=O)c12 | > 10 | > 10 | < 1 | 0.1 to 10 | < 0.1 |
| Cc1ccccc1-n1c(Cn2nc(C#CC3CC3)c3c(N)ncnc32)cc2cccc(C)c2c1=O | > 10 | > 10 | < 1 | < 1 | < 1 |
| Cc1ccccc1-n1c(Cn2nc(-c3ccc(F)cc3)c3c(N)ncnc32)cc2cccc(C)c2c1=O | > 10 | > 10 | < 1 | < 10 | < 10 |
| Cc1cccnc1-n1c(Cn2nc(C#C[C@@H](C)O)c3c(N)ncnc32)cc2cccc(C)c2c1=O | > 10 | > 10 | > 10 | < 1 | < 1 |
| COc1cc(-c2nn(Cc3cc4cccc(C)c4c(=O)n3-c3ccccc3F)c3ncnc(N)c23)ccc1Cl | > 10 | > 10 | < 1 | < 10 | < 10 |
| COc1ccccc1-n1c(Cn2nc(C#C[C@@H](C)O)c3c(N)ncnc32)cc2cccc(C)c2c1=O | > 10 | > 10 | < 1 | < 0.1 | < 1 |
| Cc1cccc2cc(Cn3nc(C#N)c4c(N)ncnc43)n(-c3ccccc3F)c(=O)c12 | > 10 | > 10 | > 10 | < 0.1 | < 1 |
| Cc1cccc2cc(Cn3nc(C#CCO)c4c(N)ncnc43)n(-c3ccccc3F)c(=O)c12 | > 10 | > 10 | < 1 | < 0.1 | < 1 |
| Cc1cccc2cc(Cn3nc(-c4cccc(F)c4)c4c(N)ncnc43)n(-c3ccccc3F)c(=O)c12 | > 10 | > 10 | < 10 | < 10 | < 10 |
| Cc1cccc2cc(Cn3nc(C#C[C@@H](C)O)c4c(N)ncnc43)n(-c3ccccc3F)c(=O)c12 | > 10 | > 10 | < 1 | < 0.1 | < 1 |
| Cc1cccc2cc(Cn3nc(-c4cn[nH]c4)c4c(N)ncnc43)n(-c3cccc(F)c3)c(=O)c12 | > 10 | > 10 | < 1 | < 0.1 | < 0.1 |
| Cc1ccccc1-n1c(Cn2nc(I)c3c(N)ncnc32)cc2cccc(F)c2c1=O | > 10 | > 10 | < 10 | < 1 | < 1 |
| Cc1cccc2cc(Cn3nc(C#C[C@@H](C)O)c4c(N)ncnc43)n(-c3ccccc3Cl)c(=O)c12 | > 10 | > 10 | < 1 | < 0.1 | < 1 |
| Cc1ccccc1-n1c(Cn2nc(C#N)c3c(N)ncnc32)cc2cccc(C)c2c1=O | > 10 | > 10 | < 10 | < 0.1 | < 0.1 |
| Cc1cccc2cc(Cn3nc(Br)c4c(N)ncnc43)n(-c3ccccc3F)c(=O)c12 | > 10 | > 10 | < 10 | < 1 | < 1 |
| Cc1cccc2cc(Cn3nc(-c4cccc(O)c4)c4c(N)ncnc43)n(-c3ccccc3F)c(=O)c12 | > 10 | > 10 | < 1 | < 0.1 | < 1 |
| Cc1ccccc1-n1c(Cn2nc(-c3cccc(F)c3)c3c(N)ncnc32)cc2cccc(C)c2c1=O | > 10 | > 10 | < 1 | < 10 | < 1 |
| Cc1ccccc1-n1c(Cn2nc(C#CCO)c3c(N)ncnc32)cc2cccc(C)c2c1=O | > 10 | > 10 | < 1 | < 0.1 | < 1 |
| Cc1cccc2cc(Cn3nc(Cl)c4c(N)ncnc43)n(-c3ccccc3F)c(=O)c12 | > 10 | > 10 | < 10 | < 1 | < 1 |
| Cc1ccccc1-n1c(Cn2nc(-c3cn[nH]c3)c3c(N)ncnc32)cc2ccccc2c1=O | > 10 | > 10 | < 10 | < 1 | < 0.1 |
| Cc1cccnc1-n1c(Cn2nc(-c3cc(O)cc(F)c3)c3c(N)ncnc32)cc2ccccc2c1=O | > 10 | > 10 | < 1 | < 0.1 | < 0.1 |
| Cc1cccc2cc(Cn3nc(-c4cnn(CCO)c4)c4c(N)ncnc43)n(-c3ccccc3F)c(=O)c12 | > 10 | > 10 | < 1 | < 0.1 | 1 to 10 |
| Cc1cccc2cc(Cn3nc(C#C[C@@H](C)O)c4c(N)ncnc43)n(-c3ccccc3O)c(=O)c12 | > 10 | > 10 | < 10 | < 0.1 | < 1 |
| Cc1ccccc1-n1c(Cn2nc(-c3cnn(CCO)c3)c3c(N)ncnc32)cc2cccc(C)c2c1=O | > 10 | > 10 | < 1 |  | < 1 |
| Cc1ccccc1-n1c(Cn2nc(CN3CCOCC3)c3c(N)ncnc32)cc2cccc(C)c2c1=O | > 10 | > 10 | > 10 | < 10 |  |
| Cc1cccc2cc(Cn3nc(/C=C4/CCNC4=O)c4c(N)ncnc43)n(-c3ccccc3F)c(=O)c12 | > 10 | > 10 | > 10 | < 10 |  |
| Cc1cccc2cc(Cn3nc(-c4cnn(C)c4)c4c(N)ncnc43)n(-c3ccccc3F)c(=O)c12 | > 10 | > 10 | < 10 | < 10 |  |
| Cc1ccccc1-n1c(Cn2nc(CCC(N)=O)c3c(N)ncnc32)cc2cccc(C)c2c1=O | > 10 | > 10 | < 10 | < 1 |  |

Second part, led by results:

| IC50 (PI3K p110 beta/p85 alpha) [µM] | IC50 [1] [µM] | IC50 [2] [µM] | IC50 [4] [µM] | Compound | EC50 [3] [µM] |
| --- | --- | --- | --- | --- | --- |
| > 10 | > 10 | < 10 | < 1 | Cc1cccc2cc(Cn3nc(I)c4c(N)ncnc43)n(C)c(=O)c12 | < 1 |
| > 10 | > 10 | 0.1 to 1 | < 0.1 | Cc1ccccc1-n1c(Cn2nc(I)c3c(N)ncnc32)cc2cccc(C)c2c1=O | 0.1 to 1 |
| < 10 | < 10 | < 0.1 | < 0.1 | Cc1cccc2cc(Cn3nc(/C=C4/SC(=O)NC4=O)c4c(N)ncnc43)n(-c3ccccc3F)c(=O)c12 | < 0.1 |
| < 1 | > 10 | < 1 | < 0.1 | Cc1cccc2cc(Cn3nc(C#C[C@@H](C)O)c4c(N)ncnc43)n(C3CC3)c(=O)c12 | < 1 |
| < 10 | > 10 | < 1 | < 1 | COc1cccc(-c2nn(Cc3cc4cccc(C)c4c(=O)n3-c3ccccc3C)c3ncnc(N)c23)c1 | < 1 |
| < 10 | < 10 | < 0.1 | < 0.1 | Cc1ccccc1-n1c(Cn2nc(-c3ccc4oc(N)nc4c3)c3c(N)ncnc32)cc2cccc(C)c2c1=O | < 1 |
| < 10 | > 10 | < 1 | < 0.1 | CCc1ccccc1-n1c(Cn2nc(C#C[C@@H](C)O)c3c(N)ncnc32)cc2cccc(C)c2c1=O | < 0.1 |
| < 10 | > 10 | < 10 | < 0.1 | Cc1cccc2cc(Cn3nc(C#C[C@@H](C)O)c4c(N)ncnc43)n(C(C)C)c(=O)c12 | < 1 |
| < 1 | < 10 | < 1 | < 0.1 | Cc1cccc2cc(Cn3nc(-c4cc(O)cc(F)c4)c4c(N)ncnc43)n(C(C)C)c(=O)c12 | < 0.1 |
| < 10 | < 10 | < 0.1 | < 0.1 | Cc1ccccc1-n1c(Cn2nc(/C=C3/SC(=O)NC3=O)c3c(N)ncnc32)cc2cccc(C)c2c1=O | < 0.1 |
| < 10 | > 10 | < 0.1 | < 0.1 | Cc1ccccc1-n1c(Cn2nc(/C=C/C(N)=O)c3c(N)ncnc32)cc2cccc(C)c2c1=O | < 0.1 |
| < 10 | > 10 | < 1 | < 0.1 | Cc1cccc2cc(Cn3nc(-c4cn[nH]c4)c4c(N)ncnc43)n(-c3ccccc3F)c(=O)c12 | < 1 |
| < 10 | < 10 | < 1 | < 0.1 | Cc1cccc2cc(Cn3nc(-c4cc(O)cc(F)c4)c4c(N)ncnc43)n(-c3ccccc3OCCN3CCOCC3)c(=O)c12 | < 0.1 |
| < 10 | > 10 | < 10 | < 0.1 | Cc1cccc2cc(Cn3nc(C#C[C@@H](C)O)c4c(N)ncnc43)n(C3CCCC3)c(=O)c12 |  |
| < 10 | > 10 | < 1 | < 0.1 | Cc1ccccc1-n1c(Cn2nc(-c3cc(O)cc(F)c3)c3c(N)ncnc32)cc2cccc(F)c2c1=O | < 0.1 |
